Results as given in PubChem BioAssay AID330 (DTP/NCI, 2004).
Values joined by “and” are separate entries in the source; they are usually repeats but may differ in a detail not shown here. Equal entries are not always repeated. Toxic doses and inconclusive results are not listed.

Test system: P388 leukemia ip, CD2F1 mice, survival T/C
Assay: NCI In Vivo Anticancer Drug Screen. Data for tumor model P388 Leukemia (intraperitoneal) in CD2F1 (CDF1) mice
Conditions: endpoint: median survival time, higher = longer survival
How it was run: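 Mice carrying the transplanted tumor received test compound or vehicle. Survival was recorded in each group, and the value is the treated-group measurement divided by that of the vehicle-treated control group.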

[1] = dose: 50.0 mg/kg/injection, schedule: Q01DX005 (ip), vehicle: Klucel (hydroxypropylcellulose) (HPC)
[2] = dose: 100.0 mg/kg/injection, schedule: Q01DX005 (ip), vehicle: Klucel (hydroxypropylcellulose) (HPC)
[3] = dose: 200.0 mg/kg/injection, schedule: Q01DX005 (ip), vehicle: Klucel (hydroxypropylcellulose) (HPC)
[4] = dose: 100.0 mg/kg/injection, schedule: Q04DX003 (ip), vehicle: Klucel (hydroxypropylcellulose) (HPC)
[5] = dose: 200.0 mg/kg/injection, schedule: Q04DX003 (ip), vehicle: Klucel (hydroxypropylcellulose) (HPC)
[6] = dose: 400.0 mg/kg/injection, schedule: Q04DX003 (ip), vehicle: Klucel (hydroxypropylcellulose) (HPC)
[7] = dose: 60.0 mg/kg/injection, schedule: Q01DX005 (ip), vehicle: saline with Tween-80
[8] = dose: 120.0 mg/kg/injection, schedule: Q01DX005 (ip), vehicle: saline with Tween-80
[9] = dose: 240.0 mg/kg/injection, schedule: Q01DX005 (ip), vehicle: saline with Tween-80
[10] = dose: 30.0 mg/kg/injection, schedule: Q01DX005 (ip), vehicle: saline with Tween-80
[11] = dose: 12.5 mg/kg/injection, schedule: Q01DX009 (ip), vehicle: Klucel (hydroxypropylcellulose) (HPC)
[12] = dose: 25.0 mg/kg/injection, schedule: Q01DX009 (ip), vehicle: Klucel (hydroxypropylcellulose) (HPC)
[13] = dose: 50.0 mg/kg/injection, schedule: Q01DX009 (ip), vehicle: Klucel (hydroxypropylcellulose) (HPC)
[14] = dose: 100.0 mg/kg/injection, schedule: Q01DX009 (ip), vehicle: Klucel (hydroxypropylcellulose) (HPC)
[15] = dose: 200.0 mg/kg/injection, schedule: Q01DX009 (ip), vehicle: Klucel (hydroxypropylcellulose) (HPC)

N=c1ccn2c(n1)OC1C(O)C(CO)OC12 (stereo not drawn)
T/C (dose: 50.0 mg/kg/injection, schedule: Q01DX009 (ip), vehicle: saline): 200 % of control | T/C (dose: 75.0 mg/kg/injection, schedule: Q01DX009 (ip), vehicle: saline): 156 % of control | T/C (dose: 100.0 mg/kg/injection, schedule: Q01DX009 (ip), vehicle: saline sonified): 181 % of control | T/C (dose: 100.0 mg/kg/injection, schedule: Q01DX009 (ip), vehicle: saline): 222 % of control | T/C (dose: 150.0 mg/kg/injection, schedule: Q01DX009 (ip), vehicle: saline): 175 % of control | T/C (dose: 160.0 mg/kg/injection, schedule: Q01DX005 (ip), vehicle: saline): 150 % of control | T/C (dose: 160.0 mg/kg/injection, schedule: Q01DX005 (iv), vehicle: saline): 161 % of control | T/C (dose: 200.0 mg/kg/injection, schedule: Q01DX009 (ip), vehicle: saline sonified): 168 % of control | T/C (dose: 200.0 mg/kg/injection, schedule: Q01DX009 (ip), vehicle: saline): 272 % of control | T/C (dose: 300.0 mg/kg/injection, schedule: Q01DX009 (ip), vehicle: saline): 200 % of control | T/C (dose: 320.0 mg/kg/injection, schedule: Q01DX005 (ip), vehicle: saline): 170 % of control | T/C (dose: 320.0 mg/kg/injection, schedule: Q01DX005 (iv), vehicle: saline): 184 % of control | T/C (dose: 400.0 mg/kg/injection, schedule: Q01DX009 (ip), vehicle: saline sonified): 181 % of control | T/C (dose: 400.0 mg/kg/injection, schedule: Q01DX009 (ip), vehicle: saline): 272 % of control | T/C (dose: 600.0 mg/kg/injection, schedule: Q01DX009 (ip), vehicle: saline): 91 % of control | T/C (dose: 640.0 mg/kg/injection, schedule: Q01DX005 (ip), vehicle: saline): 203 % of control | T/C (dose: 640.0 mg/kg/injection, schedule: Q01DX005 (iv), vehicle: saline): 194 % of control | T/C (dose: 800.0 mg/kg/injection, schedule: Q01DX009 (ip), vehicle: saline sonified): 181 % of control

COC(=O)C[C@@]1(C(=O)OC)[C@H](C(=O)OC)[C@@H](C(=O)OC)N(C(C)=O)N1C
T/C [1]: 105 % of control | T/C [2]: 105 % of control | T/C (dose: 100.0 mg/kg/injection, schedule: Q04DX002 (ip), vehicle: Klucel (hydroxypropylcellulose) (HPC)): 104 % of control | T/C [3]: 103 % of control | T/C (dose: 200.0 mg/kg/injection, schedule: Q04DX002 (ip), vehicle: Klucel (hydroxypropylcellulose) (HPC)): 95 % of control | T/C (dose: 400.0 mg/kg/injection, schedule: Q04DX002 (ip), vehicle: Klucel (hydroxypropylcellulose) (HPC)): 103 % of control

O=C1COCC(=O)OCCOCCOCCO1
T/C [4]: 100 % of control | T/C [5]: 100 % of control | T/C [6]: 100 % of control

COC(=O)C1=C(C)OC2OCCC12 (stereo not drawn)
T/C [7]: 110 % of control | T/C [8]: 101 % of control | T/C [9]: 102 % of control

Nc1nc(Cl)c(N=Nc2ccccc2)c(=O)[nH]1
T/C (dose: 7.5 mg/kg/injection, schedule: Q01DX005 (ip), vehicle: saline with Tween-80): 111 % of control | T/C (dose: 15.0 mg/kg/injection, schedule: Q01DX005 (ip), vehicle: saline with Tween-80): 105 % of control | T/C [10]: 99 % of control and 108 % of control | T/C [7]: 101 % of control and 109 % of control

C/C=C/C(=O)OCC1CCN(C)C1 (stereo not drawn)
T/C [11]: 95 % of control | T/C [12]: 94 % of control | T/C [13]: 96 % of control | T/C [14]: 94 % of control | T/C [15]: 89 % of control

N#C/C(=C/c1ccco1)c1ccccc1
T/C [11]: 95 % of control | T/C [12]: 88 % of control

NSc1ccccn1
T/C (dose: 25.0 mg/kg/injection, schedule: Q01DX001 (ip), vehicle: Klucel (hydroxypropylcellulose) (HPC)): 96 % of control | T/C (dose: 50.0 mg/kg/injection, schedule: Q01DX001 (ip), vehicle: Klucel (hydroxypropylcellulose) (HPC)): 96 % of control | T/C (dose: 100.0 mg/kg/injection, schedule: Q01DX001 (ip), vehicle: Klucel (hydroxypropylcellulose) (HPC)): 97 % of control | T/C (dose: 100.0 mg/kg/injection, schedule: Q01DX001 (ip), vehicle: saline with Tween-80): 102 % of control

O=C1C2OC2C(O)(CCN(Cc2ccc3c(c2)OCO3)C(=O)C(F)(F)F)C2OC12 (stereo not drawn)
T/C (dose: 6.25 mg/kg/injection, schedule: Q01DX001 (ip), vehicle: saline): 104 % of control | T/C (dose: 12.5 mg/kg/injection, schedule: Q01DX001 (ip), vehicle: saline): 105 % of control | T/C (dose: 25.0 mg/kg/injection, schedule: Q01DX001 (ip), vehicle: saline): 106 % of control

Fc1ccc2[nH]c3c(c2c1)-c1ncncc1CC3
T/C [1]: 101 % of control | T/C [2]: 100 % of control | T/C [3]: 101 % of control

NC(=O)NN(Cc1ccc2c(c1)OCO2)N=O
T/C [13]: 99 % of control | T/C [14]: 107 % of control | T/C [15]: 91 % of control

O=C1C(Br)=CC2C1C1C=CC2(Br)C1=O (stereo not drawn)
T/C [10]: 105 % of control and 107 % of control | T/C [7]: 111 % of control and 112 % of control and 118 % of control | T/C [8]: 101 % of control and 111 % of control and 113 % of control | T/C [9]: 120 % of control

OC(C1CCCCC1)C1CCCCC1Cl (stereo not drawn)
T/C (dose: 50.0 mg/kg/injection, schedule: Q01DX005 (ip), vehicle: saline with Tween-80): 102 % of control | T/C (dose: 100.0 mg/kg/injection, schedule: Q01DX005 (ip), vehicle: saline with Tween-80): 102 % of control | T/C (dose: 200.0 mg/kg/injection, schedule: Q01DX005 (ip), vehicle: saline with Tween-80): 102 % of control

O=C1CCSC(=O)N1c1ccc(F)cc1
T/C (dose: 100.0 mg/kg/injection, schedule: Q04DX002 (ip), vehicle: saline with Tween-80): 100 % of control | T/C (dose: 200.0 mg/kg/injection, schedule: Q04DX002 (ip), vehicle: saline with Tween-80): 105 % of control | T/C (dose: 400.0 mg/kg/injection, schedule: Q04DX002 (ip), vehicle: saline with Tween-80): 99 % of control

COc1ccc(C(=O)CCN(C)C)c(OC)c1
T/C (dose: 15.0 mg/kg/injection, schedule: Q01DX005 (ip), vehicle: saline): 102 % of control | T/C (dose: 30.0 mg/kg/injection, schedule: Q01DX005 (ip), vehicle: saline): 94 % of control | T/C (dose: 60.0 mg/kg/injection, schedule: Q01DX005 (ip), vehicle: saline): 106 % of control and 109 % of control

CC1CN(C(=O)Nc2ccc(Cl)c(Cl)c2)CC(C)O1 (stereo not drawn)
T/C (dose: 6.25 mg/kg/injection, schedule: Q01DX009 (ip), vehicle: saline): 100 % of control | T/C (dose: 12.5 mg/kg/injection, schedule: Q01DX009 (ip), vehicle: saline): 98 % of control | T/C (dose: 25.0 mg/kg/injection, schedule: Q01DX009 (ip), vehicle: saline): 86 % of control | T/C (dose: 200.0 mg/kg/injection, schedule: Q01DX009 (ip), vehicle: saline with Tween-80): 100 % of control

O=C(O)Cc1ccc2c(c1)sc1nc(-c3ccc(Br)cc3)cn12
T/C [4]: 101 % of control | T/C [5]: 103 % of control | T/C [6]: 103 % of control

O=C1C(=O)C(Cl)=C(Cl)C(Cl)=C1Cl
T/C (dose: 6.25 mg/kg/injection, schedule: Q01DX009 (ip), vehicle: saline with Tween-80): 100 % of control and 95 % of control | T/C (dose: 12.5 mg/kg/injection, schedule: Q01DX009 (ip), vehicle: saline with Tween-80): 93 % of control | T/C (dose: 25.0 mg/kg/injection, schedule: Q01DX009 (ip), vehicle: saline with Tween-80): 100 % of control and 98 % of control

CCC(CCC(C)C1CCC2C3CC=C4CC(OP(=[Se])(c5ccccc5)c5ccccc5)CCC4(C)C3CCC12C)C(C)C (stereo not drawn)
T/C (dose: 13.75 mg/kg/injection, schedule: Q01DX001 (ip), vehicle: Klucel (hydroxypropylcellulose) (HPC)): 102 % of control | T/C (dose: 27.5 mg/kg/injection, schedule: Q01DX001 (ip), vehicle: Klucel (hydroxypropylcellulose) (HPC)): 106 % of control | T/C (dose: 55.0 mg/kg/injection, schedule: Q01DX001 (ip), vehicle: Klucel (hydroxypropylcellulose) (HPC)): 104 % of control

CCCNC(=O)NNC(=O)c1ccc(NC(=O)NCCC)cc1
T/C [13]: 101 % of control | T/C [14]: 102 % of control | T/C [15]: 89 % of control

CCCCC([Se])=NCCC(C)C
T/C (dose: 6.25 mg/kg/injection, schedule: Q01DX009 (ip), vehicle: Klucel (hydroxypropylcellulose) (HPC)): 105 % of control | T/C [11]: 108 % of control | T/C [12]: 93 % of control

CCNC(=O)OCc1c(COC(=O)NCC)c2n(c1C)CCc1ccccc1-2
T/C (dose: 12.5 mg/kg/injection, schedule: Q01DX009 (ip), vehicle: distilled water + Tween-80): 157 % of control and 185 % of control | T/C (dose: 25.0 mg/kg/injection, schedule: Q01DX009 (ip), vehicle: distilled water + Tween-80): 166 % of control
